Assay results as given in patent US10722514B2 (FLX Bio, Inc., priority 2017, dated 2020).
Counter-ions that a name gives are not always drawn.

biological target: T1, recombinant full-length USP7 (Homo sapiens, UniProt Q93009); test: USP7-mediated ubiquitin-rhodamine cleavage assay; format: biochemical; conditions: recombinant full-length USP7 62 pM; ubiquitin-rhodamine 100 nM; 30-minute incubation with compound, 1 hour reaction at room temperature; read-out: Potency: USP7 IC50
T1 construct: A 25 μl reaction volume containing recombinant full-length USP7 (62 pM)
T1 sequence (Q93009 whole entry): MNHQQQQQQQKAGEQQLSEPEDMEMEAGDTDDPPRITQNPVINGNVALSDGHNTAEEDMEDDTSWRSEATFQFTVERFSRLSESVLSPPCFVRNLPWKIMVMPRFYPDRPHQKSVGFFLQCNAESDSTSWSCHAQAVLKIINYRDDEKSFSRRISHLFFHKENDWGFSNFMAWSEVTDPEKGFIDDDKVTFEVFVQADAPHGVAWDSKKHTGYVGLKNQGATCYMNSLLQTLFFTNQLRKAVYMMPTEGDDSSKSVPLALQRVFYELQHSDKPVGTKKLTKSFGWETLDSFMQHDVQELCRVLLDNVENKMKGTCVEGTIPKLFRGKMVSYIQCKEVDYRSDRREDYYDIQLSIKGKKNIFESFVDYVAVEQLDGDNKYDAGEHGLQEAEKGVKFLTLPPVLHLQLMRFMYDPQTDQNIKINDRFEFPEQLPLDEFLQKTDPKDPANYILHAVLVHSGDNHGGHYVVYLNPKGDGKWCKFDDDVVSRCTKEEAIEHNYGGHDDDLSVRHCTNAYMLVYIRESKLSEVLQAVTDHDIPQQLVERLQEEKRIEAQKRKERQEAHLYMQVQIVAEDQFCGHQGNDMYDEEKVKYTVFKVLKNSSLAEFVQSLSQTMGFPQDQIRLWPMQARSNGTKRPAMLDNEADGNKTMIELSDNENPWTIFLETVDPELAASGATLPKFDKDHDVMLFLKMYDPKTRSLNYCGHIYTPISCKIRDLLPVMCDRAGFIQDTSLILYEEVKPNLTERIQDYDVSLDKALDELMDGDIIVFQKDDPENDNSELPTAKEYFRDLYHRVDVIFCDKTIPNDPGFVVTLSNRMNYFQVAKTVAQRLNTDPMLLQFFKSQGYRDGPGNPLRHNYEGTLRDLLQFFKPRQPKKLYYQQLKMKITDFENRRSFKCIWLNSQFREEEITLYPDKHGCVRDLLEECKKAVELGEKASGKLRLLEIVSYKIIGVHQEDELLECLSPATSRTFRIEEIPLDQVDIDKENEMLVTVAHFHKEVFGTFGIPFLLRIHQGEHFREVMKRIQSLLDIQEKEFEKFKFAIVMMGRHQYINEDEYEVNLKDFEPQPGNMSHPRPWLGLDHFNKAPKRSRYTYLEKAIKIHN
In short: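 IC50 values came from fluorescence measured after a 1 h room-temperature reaction of 62 pM enzyme with 100 nM ubiquitin-rhodamine, following 30 min compound preincubation; fits used four parameters.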

SMILES	IC50 [nM]
Cc1cc(Cl)cc(-c2ncnc3cc(CN4C(=O)C5C(C4=O)C5(C)C)sc23)c1O[C@@H]1CCN(C)C[C@@H]1C (stereo partly drawn) [Example 373, 3-[[4-[5-chloro-2-[[(3S,4R)-1,3-dimethyl-4-piperidyl]oxy]-3-methyl-phenyl]thieno[3,2-d]pyrimidin-6-yl]methyl]-6,6-dimethyl-3-azabicyclo[3.1.0]hexane-2,4-dione dihydrochloride]	< 1000
Cc1cc(Cl)cc(-c2ccnc3cc(Cn4c(=O)ccn(CC(F)(F)F)c4=O)sc23)c1O[C@@H]1CCNC[C@H]1C [Example 275, 3-((7-(5-Chloro-3-methyl-2-(((3R,4R)-3-methylpiperidin-4-yl)oxy)phenyl)thieno[3,2-b]pyridin-2-yl)methyl)-1-(2,2,2-trifluoroethyl)pyrimidine-2,4(1H,3H)-dione]	< 1000
Cc1cc(Cl)cc(-c2ncnc3cc(CN4C(=O)C5CC5C4=O)sc23)c1O[C@@H]1CNC[C@@H]1F (stereo partly drawn) [Example 351, 3-[[4-[5-chloro-2-[(3R,4S)-4-fluoropyrrolidin-3-yl]oxy-3-methyl-phenyl]thieno[3,2-d]pyrimidin-6-yl]methyl]-3-azabicyclo[3.1.0]hexane-2,4-dione dihydrochloride]	< 1000

Second part, the molecule after the results:

IC50 [nM]	SMILES
< 1000	Cc1cc(Cl)cc(-c2ccnc3cc(CN4C(=O)CCC4=O)sc23)c1OC1CCNCC1CO (stereo not drawn) [Example 234, 1-((7-(5-Chloro-2-((3-(hydroxymethyl)piperidin-4-yl)oxy)-3-methylphenyl)thieno[3,2-b]pyridin-2-yl)methyl)pyrrolidine-2,5-dione]
< 1000	Cc1cc(Cl)cc(-c2ccnc3cc(CN4C(=O)CCC4=O)sc23)c1O[C@@H]1CN(C)C[C@@H]1F [Example 124, 1-((7-(5-Chloro-2-(((3R,4S)-4-fluoro-1-methylpyrrolidin-3-yl)oxy)-3-methylphenyl)thieno[3,2-b]pyridin-2-yl)methyl)pyrrolidine-2,5-dione]
< 1000	CN[C@H]1CC[C@H](Oc2c(C)cc(Cl)cc2-c2ccnc3cc(CN4C(=O)CCC4=O)sc23)CC1 [Example 213, 1-((7-(5-Chloro-3-methyl-2-(((1r,4r)-4-(methylamino)cyclohexyl)oxy)phenyl)thieno[3,2-b]pyridin-2-yl)methyl)pyrrolidine-2,5-dione]
10000 to 30000	CCC(O)c1cc2nccc(-c3cc(Cl)cc(C)c3OC3CCNC3=O)c2s1 (stereo not drawn) [Example 87, 3-(4-Chloro-2-(2-(1-hydroxypropyl)thieno[3,2-b]pyridin-7-yl)-6-methylphenoxy)pyrrolidin-2-one]
< 1000	Cc1cc(Cl)cc(-c2ccnc3cc(CN4C(=O)C5C(C4=O)C5(C)C)sc23)c1O[C@@H]1CCNC[C@@H]1F (stereo partly drawn) [Example 382, 3-[[7-[5-chloro-2-[[(3S,4R)-3-fluoro-4-piperidyl]oxy]-3-methyl-phenyl]thieno[3,2-b]pyridin-2-yl]methyl]-6,6-dimethyl-3-azabicyclo[3.1.0]hexane-2,4-dione; 2,2,2-trifluoroacetic acid]
< 1000	Cc1cc(Cl)cc(-c2ccnc3cc(CN4C(=O)C5CC5C4=O)sc23)c1OC1CCNC1C (stereo not drawn) [Example 301, 3-[[7-[5-chloro-3-methyl-2-(2-methylpyrrolidin-3-yl)oxy-phenyl]thieno[3,2-b]pyridin-2-yl]methyl]-3-azabicyclo[3.1.0]hexane-2,4-dione; 2,2,2-trifluoroacetic acid]
< 1000	Cc1cc(Cl)cc(-c2ccnc3cc(CN4C(=O)CCC4=O)sc23)c1O[C@@H]1CNCC[C@@H]1C [Example 243, 1-((7-(5-Chloro-3-methyl-2-(((3S,4S)-4-methylpiperidin-3-yl)oxy)phenyl)thieno[3,2-b]pyridin-2-yl)methyl)pyrrolidine-2,5-dione]
10000 to 30000	Cc1cc(Cl)cc(-c2ccnc3cc(CO)sc23)c1OC1C[C@@H]2C[C@H](C1)N2 (stereo partly drawn) [Example 190, (7-(2-(((1R,5S)-6-Azabicyclo[3.1.1]heptan-3-yl)oxy)-5-chloro-3-methylphenyl)thieno[3,2-b]pyridin-2-yl)methanol]
< 1000	Cc1cc(Cl)cc(-c2ccnc3cc(CN4C(=O)COC4=O)sc23)c1O[C@H]1CCCNC1 [Example 330, 3-[[7-[5-chloro-3-methyl-2-[[(3S)-3-piperidyl]oxy]phenyl]thieno[3,2-b]pyridin-2-yl]methyl]oxazolidine-2,4-dione; 2,2,2-trifluoroacetic acid]
< 1000	Cc1cc(Cl)cc(-c2ccnc3cc(CN4C(=O)CC(C)(C)C4=O)sc23)c1O[C@H]1CCCNC1 [Example 313, 1-[[7-[5-chloro-3-methyl-2-[[(3S)-3-piperidyl]oxy]phenyl]thieno[3,2-b]pyridin-2-yl]methyl]-3,3-dimethyl-pyrrolidine-2,5-dione; 2,2,2-trifluoroacetic acid]
1000 to 10000	Cc1cc(Cl)cc(-c2ccnc3cc(CO)sc23)c1OCC1(C)CNC1 [Example 17, (7-(5-Chloro-3-methyl-2-((3-methylazetidin-3-yl)methoxy)phenyl)thieno[3,2-b]pyridin-2-yl)methanol]

same assay, conditions: recombinant full-length USP7 62 pM; ubiquitin-rhodamine 100 nM; 30-minute incubation, 1 hour reaction at room temperature; read-out: Potency (USP7 IC50)

IC50 [nM]	SMILES
< 1000	Cc1cc(Cl)cc(-c2ccnc3cc(Cn4c(=O)ccn(CC(F)(F)F)c4=O)sc23)c1O[C@@H]1CCN(CC(=O)O)C[C@@H]1C [Example 691, 2-[(3S,4R)-4-[4-chloro-2-[2-[[2,6-dioxo-3-(2,2,2-trifluoroethyl)pyrimidin-1-yl]methyl]thieno[3,2-b]pyridin-7-yl]-6-methyl-phenoxy]-3-methyl-1-piperidyl]acetic acid]
< 1000	Cc1cc(Cl)cc(-c2ccnc3cc(Cn4c(=O)ccn(CC(F)(F)F)c4=O)sc23)c1OC1CCOCC1 [Example 670]

SMILES	IC50 [nM]
Cc1cc(Cl)cc(-c2ccnc3cc(Cn4c(=O)ccn(CC(F)(F)F)c4=O)sc23)c1OC1CC(N2CCC(F)C2)C1 (stereo not drawn) [Example 685, 3-[[7-[5-chloro-2-[3-(3-fluoropyrrolidin-1-yl)cyclobutoxy]-3-methyl-phenyl]thieno[3,2-b]pyridin-2-yl]methyl]-1-(2,2,2-trifluoroethyl)pyrimidine-2,4-dione; 2,2,2-trifluoroacetic acid]	< 1000

same assay, conditions: recombinant full-length USP7 62 pM; ubiquitin-rhodamine 100 nM; 30-minute pre-incubation, 1 hour reaction at room temperature; read-out: Potency (USP7 IC50)

SMILES	IC50 [nM]
Cc1cc(Cl)cc(-c2ncnc3cc(Cn4c(=O)ccn(C(C)C)c4=O)sc23)c1OC1CC(N)C1 (stereo not drawn) [Example 541, 3-[[4-[2-(3-aminocyclobutoxy)-5-chloro-3-methyl-phenyl]thieno[3,2-d]pyrimidin-6-yl]methyl]-1-isopropyl-pyrimidine-2,4-dione; 2,2,2-trifluoroacetic acid]	< 1000
Cc1cc(Cl)cc(-c2ccnc3cc(Cn4c(=O)ccn(C)c4=O)sc23)c1O[C@@H]1CN(C(C)C)C[C@@H]1F [Example 469, 3-[[7-[5-chloro-2-[(3R,4S)-4-fluoro-1-isopropyl-pyrrolidin-3-yl]oxy-3-methyl-phenyl]thieno[3,2-b]pyridin-2-yl]methyl]-1-methyl-pyrimidine-2,4-dione]	< 1000
Cc1cc(Cl)cc(-c2ccnc3cc(Cn4c(=O)ccn(CC(F)(F)F)c4=O)sc23)c1OCCN [Example 576, 3-[[7-[2-(2-aminoethoxy)-5-chloro-3-methyl-phenyl]thhieno[3,2-b]pyridin-2-yl]methyl]-1-(2,2,2-trifluoroethyl)pyrimidine-2,4-dione; 2,2,2-trifluoroacetic acid]	< 1000
Cc1cc(Cl)cc(-c2ccnc3cc(CN4C(=O)CCC4=O)sc23)c1OC1CC(N)C1 (stereo not drawn) [Example 413, 1-[[7-[2-(3-aminocyclobutoxy)-5-chloro-3-methyl-phenyl]thieno[3,2-b]pyridin-2-yl]methyl]pyrrolidine-2,5-dione dihydrochloride]	< 1000
Cc1cc(Cl)cc(-c2ccnc3cc(Cn4c(=O)ccn(CC(F)(F)F)c4=O)sc23)c1OC1C=CCNC1 (stereo not drawn) [Example 631, 3-[[7-[5-chloro-3-methyl-2-(1,2,3,6-tetrahydropyridin-3-yloxy)phenyl]thieno[3,2-b]pyridin-2-yl]methyl]-1-(2,2,2-trifluoroethyl)pyrimidine-2,4-dione]	< 1000
Cc1cc(Cl)cc(-c2ncnc3cc(CN4C(=O)C5CC5C4=O)sc23)c1OC1CCCNC1 (stereo not drawn) [Example 412, 3-[[4-[5-chloro-3-methyl-2-(3-piperidyloxy)phenyl]thieno[3,2-d]pyrimidin-6-yl]methyl]-3-azabicyclo[3.1.0]hexane-2,4-dione]	< 1000

Next, values leading:

IC50 [nM]	SMILES
< 1000	Cc1cc(Cl)cc(-c2ccnc3cc(Cn4c(=O)ccn(C)c4=O)sc23)c1OCC1CNC1 [Example 487, 3-[[7-[2-(azetidin-3-ylmethoxy)-5-chloro-3-methyl-phenyl]thieno[3,2-b]pyridin-2-yl]methyl]-1-methyl-pyrimidine-2,4-dione]
1000 to 10000	Cc1cc(Cl)cc(-c2ccnc3cc(Cn4c(=O)ccn(C)c4=O)sc23)c1O[C@H]1CN[C@H](C(=O)O)C1 [Example 600, (2S,4R)-4-[4-chloro-2-methyl-6-[2-[(3-methyl-2,6-dioxo-pyrimidin-1-yl)methyl]thieno[3,2-b]pyridin-7-yl]phenoxy]pyrrolidine-2-carboxylic acid]
< 1000	Cc1cc(Cl)cc(-c2ccnc3cc(Cn4c(=O)ccn(C)c4=O)sc23)c1O[C@@H]1CNCC[C@@H]1F [Example 570, 3-[[7-[5-chloro-2-[[(3R,4S)-4-fluoro-3-piperidyl]oxy]-3-methyl-phenyl]thieno[3,2-b]pyridin-2-yl]methyl]-1-methyl-pyrimidine-2,4-dione]
< 1000	CCn1ccc(=O)n(Cc2cc3nccc(-c4cc(Cl)cc(C)c4O[C@@H]4CNC[C@@H]4F)c3s2)c1=O [Example 452, 3-[[7-[5-chloro-2-[(3R,4S)-4-fluoropyrrolidin-3-yl]oxy-3-methyl-phenyl]thieno[3,2-b]pyridin-2-yl]methyl]-1-ethyl-pyrimidine-2,4-dione]
